Tests used:
[1] = Acute toxicity by intravenous route to rats; assay type: in vivo; settings: rat, in vivo, oxalate acid form except those marked (hydrochloride)
Procedure: (§1) Acute toxicity tests were carried out on rats and mice. The following results were registered in comparison with butoprozine. The compounds of the invention were used in oxalate acid form except those marked (x) which were tested in hydrochloride form.

[2] = Acute toxicity by intravenous route to mice; settings: mouse, in vivo, oxalate acid form except those marked (hydrochloride)
Procedure: as §1

[3] = Acute toxicity by intragastric route to mice; assay type: in vivo; settings: mouse, in vivo, po, oxalate acid form except those marked (hydrochloride)
Procedure: as §1

mice = assay: Acute toxicity by intragastric route to mice; assay type: in vivo; settings: hydrochloride form (marked)
Procedure: as §1

rats = assay: Acute toxicity by intravenous route to rats; assay type: in vivo; settings: oxalate acid form except those marked (hydrochloride)
Procedure: as §1

[4] = system: epinephrine-increased blood-pressure (anti-α effect); assay: Antiadrenergic effect: anti-α effect (reduction of epinephrine-increased blood-pressure); assay type: in vivo; settings: dog
In short: (§2)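 Pentobarbital-anaesthetized, atropinized dogs given an epinephrine dose (5–10 μg/kg) raising arterial pressure about 100 mm Hg, then test compound i.v. Reduction of the pressor response (anti-α) and of the ~70-beat tachycardia (anti-β) scored: + <50%, ++ ≥50%, +++ subtotal.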

[5] = system: epinephrine-accelerated heart rate (anti-β effect); assay: Antiadrenergic effect: anti-β effect (reduction of epinephrine-accelerated heart rate); assay type: in vivo; settings: dog; for inhibition in vivo at 5 mg/kg: dose 5 mg/kg i.v.
In short: as §2

ventricular fibrillation = assay: Anti-arrhythmic properties, LAWSON test (chloroform-provoked arrhythmia), intragastric; assay type: in vivo; settings: Mus musculus, po, mice, read-out: AD50 (dose protecting 50% of the animals against ventricular fibrillation)
Procedure: The arrhythmia was provoked by making the animals inhale chloroform to total asphyxia and by later observing the ventricular rhythm. The dose of compound protecting 50% of the animals against ventricular fibrillation i.e. the AD50 was then recorded.

[6] = Blood level after oral dose in the dog; assay type: in vivo; settings: same oral dose
[7] = system: blood-flow to the myocardium; assay: Effect on blood-flow to the myocardium, anaesthetized dogs, intravenous; assay type: in vivo, dog; settings: anaesthetized dog
Procedure: It was undertaken on anaesthetized dogs which received the substance under study by intravenous route. The intensity of the maximum effect on blood-flow to the myocardium was expressed in percentage of the corresponding value before injection. The time required for the maximum effect to decrease by 50% represented the duration of the effect. This time was measured in minutes.

dog = assay: Cardiac tolerance and general toxicity in long-term toxicity tests, oral, dog; settings: in vivo
[8] = system: consumption of oxygen by the myocardium; assay: Consumption of oxygen by the myocardium; settings: in vivo
Excerpt: Furthermore, the indolizine derivatives present a β-antiadrenergic effect which is much more powerful than that of the derivatives of the aforesaid U.S. patent. At the minimum dose required to produce bradycardia, a reduction in arterial pressure, α-antiadrenergic and coronarodilatory effects to a significant degree, the β-antiadrenergic effect is, in fact, only slight in the case of the derivatives of the U.S. patent in question whereas it is much stronger with the indolizine derivatives of the invention. Moreover, the compounds of the invention reduce the consumption of oxygen by the myocardium calculated by multiplying the difference between the arterial and venous blood in oxygen by the coronary blood-flow. Thus, the compounds of the invention cause a considerable reduction in the arterio-venous difference which induces a decrease in the consumption of oxygen in spite of the increase of the coronary blood-flow.

[9] = Canis lupus familiaris, iv, dose 10 mg/kg i.v.
[10] = Canis lupus familiaris, iv, dose 10 mg/kg i.v., read-out: Max. increase (blood-flow to the myocardium)
[11] = Canis lupus familiaris, iv, dose 5 mg/kg i.v., read-out: Max. increase (blood-flow to the myocardium)

CCCCN(CCCC)CCCOc1ccc(C(=O)c2c(C)c(Br)c3ccccn23)cc1Br.Cl [(*)Br/Br/H/CH3/n-C4H9/3, 1-Bromo-2-methyl-3-[4-(3-di-n-butylaminopropyl)-oxy-3-bromo-benzoyl]-indolizine hydrochloride]
LD50 [1]: 70 mg/kg
LD50 [2]: 50 mg/kg
LD50 [3]: > 5000 mg/kg
LD0 (mice): > 5000 mg/kg

CCCCN(CCCC)CCCOc1ccc(C(=O)c2c(-c3ccccc3)c(Br)c3ccccn23)cc1Cl.Cl [(*)Br/Cl/H/drawing 49/n-C4H9/3, 1-Bromo-2-phenyl-3-[4-(3-di-n-butylaminopropyl)-oxy-3-chloro-benzoyl]-indolizine hydrochloride]
LD50 [1]: > 100 mg/kg

CCCCN(CCCC)CCCOc1ccc(C(=O)c2c(CC)cc3ccccn23)cc1Cl.Cl [(*)H/Cl/H/C2H5/n-C4H9/3, 2-Ethyl-3-[4-(3-di-n-butylaminopropyl)-oxy-3-chloro-benzoyl]-indolizine hydrochloride]
LD50 [1]: 65 mg/kg

CCCCc1cc2ccccn2c1C(=O)c1ccc(OCCCN(CCCC)CCCC)c(Cl)c1.Cl [(*)H/Cl/H/n-C4H9/n-C4H9/3, 2-n-butyl-3-[4-(3-di-n-butylaminopropyl)-oxy-3-chloro-benzoyl]-indolizine hydrochloride]
LD50 [1]: > 50 mg/kg
LD0 (rats): > 50 mg/kg

CCCCN(CCCC)CCCOc1ccc(C(=O)c2c(C)c(Br)c3ccccn23)cc1Br [Br/Br/H/CH3/n-C4H9/3, 1-Bromo-2-methyl-3-[4-(3-di-n-butylaminopropyl)-oxy-3-bromo-benzoyl]-indolizine]
Anti-α effect ([4]; dose 5 mg/kg i.v.): +++
Anti-α effect ([4]; dose 10 mg/kg i.v.): +++
inhibition in vivo at 5 mg/kg ([5]; Canis lupus familiaris, iv): > 50%
Anti-β effect ([5]; dose 10 mg/kg i.v.): +++
ED50 (ventricular fibrillation): 180 mg/kg
Blood level compared with butoprozine [6]: three times higher

CCCCN(CCCC)CCCOc1c(C)cc(C(=O)c2c(C)c(Br)c3ccccn23)cc1C [Br/CH3/CH3/CH3/n-C4H9/3, 1-Bromo-2-methyl-3-[4-(3-di-n-butylaminopropyl)-oxy-3,5-dimethyl-benzoyl]-indolizine]
Anti-α effect ([4]; dose 10 mg/kg i.v.): +++
inhibition in vivo at 10 mg/kg [5, 9]: > 50%
ED50 (ventricular fibrillation): < 100 mg/kg

CCCCN(CCCC)CCCOc1ccc(C(=O)c2c(-c3ccc(Cl)cc3)c(Br)c3ccccn23)cc1Cl [Br/Cl/H/drawing 50/n-C4H9/3]
LD50 [1]: > 100 mg/kg
LD0 (rats): > 100 mg/kg

CCCCN(CCCC)CCCOc1ccc(C(=O)c2c(CC)cc3ccccn23)cc1 [Butoprozine, 2-ethyl-3-[4-(3-di-n-butylaminopropyl)-oxy-benzoyl]-indolizine, reference compound]
change in vivo at 10 mg/kg [7, 10]: 120%
Time required to decrease to 50% (duration of effect) ([7]; dose 10 mg/kg i.v.): 4 min
Anti-α effect ([4]; dose 5 mg/kg i.v.): +++
inhibition in vivo at 5 mg/kg ([5]; Canis lupus familiaris, iv): < 50%
ED50 (ventricular fibrillation): 270 mg/kg
LD50 [1]: 22 mg/kg
LD50 [2]: 25 mg/kg
LD50 [3]: 1600 mg/kg
Dose provoking ventricular arrhythmia (as low as) (dog): 50 mg/kg/day
Lethal dose (dog): 50 to 100 mg/kg/day

CCCCc1c(C)c2ccccn2c1C(=O)c1ccc(OCCCN(CCC)CCC)c(Br)c1 [CH3/Br/H/n-C4H9/n-C3H7/3, 1-Methyl-2-n-butyl-3-[4-(3-di-n-propylaminopropyl)-oxy-3-bromo-benzoyl]-indolizine]
LD50 [2]: 50 mg/kg

CCCN(CCC)CCCOc1ccc(C(=O)c2c(CC)c(Cl)c3ccccn23)cc1Cl [Cl/Cl/H/C2H5/n-C3H7/3, 1-Chloro-2-ethyl-3-[4-(3-di-n-propylaminopropyl)-oxy-3-chloro-benzoyl]-indolizine]
change in vivo at 3.3 mg/kg ([7]; Canis lupus familiaris, iv, dose 3.3 mg/kg i.v., read-out: Max. increase (blood-flow to the myocardium)): 60%
Time required to decrease to 50% (duration of effect) ([7]; dose 3.3 mg/kg i.v.): 25 min
Anti-α effect ([4]; dose 3.3 mg/kg i.v.): +++
Anti-β effect ([5]; dose 3.3 mg/kg i.v.): +++

CCCCN(CCCC)CCCOc1ccc(C(=O)c2c(CC)c(Cl)c3ccccn23)cc1Cl [Cl/Cl/H/C2H5/n-C4H9/3, 1-Chloro-2-ethyl-3-[4-(3-di-n-butylaminopropyl)-oxy-3-chloro-benzoyl]-indolizine]
change in vivo at 1 mg/kg ([7]; Canis lupus familiaris, iv, dose 1 mg/kg i.v., read-out: Max. increase (blood-flow to the myocardium)): 40%
Time required to decrease to 50% (duration of effect) ([7]; dose 1 mg/kg i.v.): 15 min
Anti-α effect ([4]; dose 0.5 mg/kg i.v.): +++
inhibition in vivo at 0.5 mg/kg ([5]; Canis lupus familiaris, iv, dose 0.5 mg/kg i.v.): < 50%
LD50 [1]: 50 mg/kg

CCCCc1c(Cl)c2ccccn2c1C(=O)c1ccc(OCCCN(CCCC)CCCC)cc1 [Cl/H/H/n-C4H9/n-C4H9/3, 1-Chloro-2-n-butyl-3-[4-(3-di-n-butylaminopropyl)-oxy-benzoyl]-indolizine]
change in vivo at 10 mg/kg [7, 10]: 60%
Time required to decrease to 50% (duration of effect) ([7]; dose 10 mg/kg i.v.): 30 min
Anti-α effect ([4]; dose 10 mg/kg i.v.): +++
inhibition in vivo at 10 mg/kg [5, 9]: > 50%
LD50 [1]: 50 mg/kg

CCCCc1cc2ccccn2c1C(=O)c1ccc(OCCCN(CCCC)CCCC)c(Br)c1 [H/Br/H/n-C4H9/n-C4H9/3, 2-n-Butyl-3-[4-(3-di-n-butylaminopropyl)-oxy-3-bromo-benzoyl]-indolizine]
change in vivo at 5 mg/kg [7, 11]: 70%
Time required to decrease to 50% (duration of effect) ([7]; dose 5 mg/kg i.v.): 60 min
Anti-α effect ([4]; dose 5 mg/kg i.v.): +++
Anti-α effect ([4]; dose 10 mg/kg i.v.): +++
inhibition in vivo at 5 mg/kg ([5]; Canis lupus familiaris, iv): > 50%
Anti-β effect ([5]; dose 10 mg/kg i.v.): +++
ED50 (ventricular fibrillation): 170 mg/kg
LD50 [1]: 60 mg/kg

CCCCc1cc2ccccn2c1C(=O)c1ccc(OCCCN(CCC)CCC)c(C)c1 [H/CH3/H/n-C4H9/n-C3H7/3, 2-n-Butyl-3-[4-(3-di-n-propylaminopropyl)-oxy-3-methyl-benzoyl]-indolizine]
inhibition in vivo at 5 mg/kg ([4]; Canis lupus familiaris, iv, dose 5 mg/kg i.v.): > 50%
inhibition in vivo at 5 mg/kg ([5]; Canis lupus familiaris, iv): < 50%
LD50 [2]: > 50 mg/kg

CCCCN(CCCC)CCCOc1c(Cl)cc(C(=O)c2c(C(C)C)cc3ccccn23)cc1Cl [H/Cl/Cl/iso-C3H7/n-C4H9/3, 2-Isopropyl-3-[4-(3-di-n-butylaminopropyl)-oxy-3,5-dichloro-benzoyl]-indolizine]
change in vivo at 10 mg/kg [7, 10]: 30%
Time required to decrease to 50% (duration of effect) ([7]; dose 10 mg/kg i.v.): 75 min
inhibition in vivo at 10 mg/kg [4, 9]: > 50%
inhibition in vivo at 10 mg/kg [5, 9]: > 50%
LD50 [1]: > 100 mg/kg

CCCCN(CCCC)CCCOc1ccc(C(=O)c2c(CC)cc3ccccn23)cc1Cl [H/Cl/H/C2H5/n-C4H9/3, 2-Ethyl-3-[4-(3-di-n-butylaminopropyl)-oxy-3-chloro-benzoyl]-indolizine]
change in vivo at 6 mg/kg ([7]; Canis lupus familiaris, iv, dose 6 mg/kg i.v., read-out: Max. increase (blood-flow to the myocardium)): 70%
Time required to decrease to 50% (duration of effect) ([7]; dose 6 mg/kg i.v.): 45 min
Anti-α effect ([4]; dose 6 mg/kg i.v.): +++
inhibition in vivo at 6 mg/kg ([5]; Canis lupus familiaris, iv, dose 6 mg/kg i.v.): > 50%

CCCN(CCC)CCCOc1ccc(C(=O)c2c(C(C)C)cc3ccccn23)cc1Cl [H/Cl/H/iso-C3H7/n-C3H7/3, 2-Isopropyl-3-[4-(3-di-n-propylaminopropyl)-oxy-3-chloro-benzoyl]-indolizine]
change in vivo at 5 mg/kg [7, 11]: 80%
Time required to decrease to 50% (duration of effect) ([7]; dose 5 mg/kg i.v.): 90 min
inhibition in vivo at 10 mg/kg [4, 9]: > 50%
inhibition in vivo at 10 mg/kg [5, 9]: > 50%

CCCCc1cc2ccccn2c1C(=O)c1ccc(OCCCN(CCCC)CCCC)c(Cl)c1 [H/Cl/H/n-C4H9/n-C4H9/3, 2-n-Butyl-3-[4-(3-di-n-butylaminopropyl)-oxy-3-chloro-benzoyl]-indolizine]
change in vivo at 5 mg/kg [7, 11]: 75%
Time required to decrease to 50% (duration of effect) ([7]; dose 5 mg/kg i.v.): 30 min
Anti-α effect ([4]; dose 10 mg/kg i.v.): +++
inhibition in vivo at 10 mg/kg [5, 9]: > 50%

CCCCN(CCCC)CCCOc1c(C)cc(C(=O)c2c(CC)c(I)c3ccccn23)cc1C [I/CH3/CH3/C2H5/n-C4H9/3, 1-Iodo-2-ethyl-3-[4-(3-di-n-butylaminopropyl)-oxy-3,5-dimethyl-benzoyl]-indolizine]
Anti-α effect ([4]; dose 10 mg/kg i.v.): +++
Anti-β effect ([5]; dose 10 mg/kg i.v.): +++
ED50 (ventricular fibrillation): 100 mg/kg

OCCN(CCO)c1nc(N2CCCCC2)c2nc(N(CCO)CCO)nc(N3CCCCC3)c2n1 [dipyridamole]
Consumption of oxygen by the myocardium [8]: does not decrease the consumption of oxygen by the myocardium

Source: patent publication US4520026A, “Indolizine derivatives and use as cardiovascular agents” (S. A. Labaz N.V., priority 1982, dated 1985)
